Earlier results in patent publication US9943543B2, “Treating male infertility secondary to sperm oxidative stress” (priority 2009, dated 2018).

For `CCC(=O)O[C@H](CC(=O)[O-])C[N+](C)(C)C` [Propionyl-L-carnitine], the “time to peak concentrations” value (after oral administration) is listed as “about 1 hour” and the “time of rise in L-carnitine plasma levels after administration” value (after oral administration of propionyl-L-carnitine) is listed as 2 to 6 h.
